Usually Tmax stands for the time at which the peak concentration occurs. As a reminder, the half-life is how long it takes for the measured level to halve. A high value points to slow loss.

The conditions of series [1]: in man, given orally; cited from earlier work.
Series [2] has as its system patients with hyperkinetic movement disorders including ethanol responsive myoclonus and essential tremor. The following applies: five patients, open label; cited from earlier work.
A short description of series [3]: Plasma pharmacokinetics of sodium oxybate given orally (background and definition statements). The note with it: human, oral.

With `O=C(O)CCCO` [sodium oxybate, Sodium gamma-hydroxybutyrate], in series [1], the plasma half-life entry is on record as “about 45 minutes”. Besides, in series [2], the “blinded ratings of ethanol responsive myoclonus and tremor” value is “dose-dependent improvements”; the tolerability result is given as “tolerated at doses that provided clinical benefit”. In addition, in series [3], the Tmax lay within 30 to 150 min and the half-life was 24 to 54 min.

The record behind these values is US9795567B2, “Immediate release formulations and dosage forms of gamma-hydroxybutyrate” (Jazz Pharmaceuticals, Inc., priority 2008, dated 2017).
